Data set [1] is described as follows: PK / bioavailability study on dogs. In kind it is in vivo, Beagle male dogs. The following applies: single oral capsule 100 mg/kg, plasma; for tmax: median values. The procedure: A bioavailability study of rifaximin τ in comparison with rifaximin amorphous and rifaximin polymorph alpha has been carried out on 4 Beagle male dogs, by feeding them a dose of 100 mg/kg of one of the polymorphs or amorphous form. Each animal received a single oral capsule of rifaximin τ, amorphous rifaximin, and rifaximin α with a washout period of seven days between the administration of each form to the same animal. Doses were administered with a […] gelatine capsule followed by 10 ml of drinking water.
Blood was taken at 6 time points up to 24 hours post dose and it was collected into tubes containing lithium heparin anticoagulant.
The plasma has been assayed for rifaximin on the validated LC-MS/MS (Liquid Chromatography-Mass Spectrometry/Mass Spectrometry) method and the maximum plasma concentration observed (Cmax), the time to reach the (Cmax), (tmax), and the area under the concentration-time curve (AUC) have been calculated.

Data set [2] in a line: Dissolution rate at neutral pH (phosphate buffer pH 6.8). In kind it is physicochemical. As to conditions: for Concentration: 500 mg in 750 ml phosphate buffer pH 6.8, 30°C, 250 rpm. The protocol:
An amount of 500 mg of rifaximin τ, 500 mg of rifaximin polymorph α, and 500 mg of amorphous rifaximin were suspended, respectively, in 750 ml of phosphate buffer at pH 6.8 at a temperature of 30±0.5° C. The solutions were stirred for 120 minutes at a stirring rate of 250 rpm. Samples with equal volume were taken at fixed time intervals, filtered and analyzed by spectrophotometer at a wavelength of 430 nm. The rifaximin concentration in the samples was calculated compared to a solution having a known concentration.

The nature of data set [3]: Determination of intrinsic dissolution (European Pharmacopeia Ed. 7.0, 2.9.3). In kind it is physicochemical. The following applies: for Intrinsic dissolution: powder of Example 5, Eur. Pharm. 7.0, 2.9.3. The procedure: The determination of the intrinsic dissolution of the powder, which was obtained according to what is described in Example 5, was carried out according to European Pharmacopeia Ed. 7.0, 2010, 2.9.3, page 256, (the disclosure of which is incorporated herein by reference in its entirety), comparing the new crystal of rifaximin τ and amorphous rifaximin and rifaximin polymorph β.

The conditions of data set [4]: per oral route; cited from earlier work.
Data set [5] is described as follows: Stability in different humidity environments (XRPD). The class given is physicochemical. The following applies: for Stability of crystal form (XRPD pattern after exposure): 10 days; for Stability on exposure to humidity: humidity levels about 10% to about 90%, about 1 hour to about 10 days. From the text: a) The rifaximin τ obtained according to Example 1 was exposed at room temperature to a humidity level of 11%, obtained by means of a saturated solution of LiCl, for a period of time of 10 days.
b) Another crystal of rifaximin τ was exposed to a humidity level of 84%, obtained with a supersaturated aqueous solution of KCl for 10 days.

Molecules are shown by their SMILES.

Regarding `CO[C@H]1/C=C/O[C@@]2(C)Oc3c(C)c(O)c4c(O)c(c5c(nc6cc(C)ccn65)c4c3C2=O)NC(=O)/C(C)=C\C=C\[C@H](C)[C@H](O)[C@@H](C)[C@@H](O)[C@@H](C)[C@H](OC(C)=O)[C@@H]1C` [Rifaximin α, rifaximin], the “AUC 0-8h” value in data set [1] was found to be 7.20 ± 4.00 ng·h/mL. Further, the “AUC 0-tlast” value in data set [1] came out at 16.86 ± 13.99 ng·h/mL. For the same molecule, the Cmax (as a rule, the highest concentration seen after dosing) in data set [1] came out at 2.84 ± 1.26 ng/mL. In data set [1], this molecule yielded a tmax of 1 h. Besides, the Concentration in data set [2] (5 min) amounted to 1050 ng/mL; in data set [2] (15 min), 3260 ng/mL; in data set [2] (30 min), 4230 ng/mL; in data set [2] (60 min) it was 4120 ng/mL; in data set [2] (120 min) it was 3890 ng/mL.

For the molecule `CO[C@H]1/C=C/O[C@@]2(C)Oc3c(C)c(O)c4c(O)c(c5c(nc6cc(C)ccn65)c4c3C2=O)NC(=O)/C(C)=C\C=C\[C@H](C)[C@H](O)[C@@H](C)[C@@H](O)[C@@H](C)[C@H](OC(C)=O)[C@@H]1C` [Amorphous rifaximin, rifaximin], the “Effect of added DEGME on measured dissolved rifaximin” value in data set [3] (addition of 0.1 ml and 1.25 ml DEGME to the solution contacting the tablet) was “does not change the measured value of the dissolved rifaximin”. The same molecule gave an Intrinsic dissolution in data set [3] of 0.131 mg/min/cm^2. Also, the “AUC 0-8h” value in data set [1] is 1318.02 ± 1975.04 ng·h/mL. In data set [1], the “AUC 0-tlast” value was 2337.16 ± 3223.76 ng·h/mL. For the same molecule, the Cmax in data set [1] was 279.79 ± 378.41 ng/mL. Further, the tmax in data set [1] was 3 h. The Concentration came to 14400 ng/mL in data set [2] (5 min); 44000 ng/mL in data set [2] (15 min); 28700 ng/mL in data set [2] (30 min); 11000 ng/mL in data set [2] (60 min); 9100 ng/mL in data set [2] (120 min).

On to `CCOCCOCCO` [DEGME, 2-(2-ethoxyethoxy)ethanol], for which the “NOAEL (No Observed Adverse Effect Level)” value in data set [4] is given as “higher than 160 mg/kg of body mass”.

Molecule `CO[C@H]1/C=C/O[C@@]2(C)Oc3c(C)c(O)c4c(O)c(c5c(nc6cc(C)ccn65)c4c3C2=O)NC(=O)/C(C)=C\C=C\[C@H](C)[C@H](O)[C@@H](C)[C@@H](O)[C@@H](C)[C@H](OC(C)=O)[C@@H]1C` [Rifaximin polymorph β, rifaximin] yielded an Intrinsic dissolution in data set [3] of 0.016 mg/min/cm^2.

Consider `CO[C@H]1/C=C/O[C@@]2(C)Oc3c(C)c(O)c4c(O)c(c5c(nc6cc(C)ccn65)c4c3C2=O)NC(=O)/C(C)=C\C=C\[C@H](C)[C@H](O)[C@@H](C)[C@@H](O)[C@@H](C)[C@H](OC(C)=O)[C@@H]1C` [Rifaximin τ, rifaximin], for which the entries for the “AUC 0-8h” value in data set [1] (listed as rifaximin τ) and in data set [1] (listed as τ) were 0 to 35 ng·h/mL and 19.93 ± 10.25 ng·h/mL, respectively. Besides, the figures for the “AUC 0-tlast” value in data set [1] (listed as rifaximin τ) and in data set [1] (listed as τ) were 20 to 325 ng·h/mL and 150.54 ± 172.55 ng·h/mL, respectively. The highest concentration (Cmax) in data set [1] (listed as rifaximin τ) was 0 to 35 ng/mL; in data set [1] (listed as τ), 15.70 ± 18.63 ng/mL. The values for the tmax in data set [1] (listed as rifaximin τ) and in data set [1] (listed as τ) were 3 to 7 h and 5 h, respectively. Besides, the “Stability of crystal form (XRPD pattern after exposure)” value in data set [5] (humidity level 11% (saturated LiCl), room temperature) is reported as “correspond to the X-ray diffraction pattern of FIG. 1”; in data set [5] (humidity level 84% (supersaturated KCl)) it was “correspond to the X-ray diffraction pattern of FIG. 1”. Besides, the “Stability on exposure to humidity” value in data set [5] is “does not alter its chemical structure”; in data set [5] (listed as rifaximin τ), “does not transform its crystallographic parameters and X-ray diffractogram”. The Concentration in data set [2] (5 min) was 21680 ng/mL; in data set [2] (15 min), 57680 ng/mL; in data set [2] (30 min) it was “higher than 90 μg/ml”; in data set [2] (60 min), 43140 ng/mL; in data set [2] (120 min) it was 14930 ng/mL. For the same molecule, the “Concentration relative to rifaximin polymorph α” value in data set [2] (aqueous solution) is on record as “about 25 times”. The “Concentration relative to amorphous rifaximin” value in data set [2] (pH 6.8, after about 30 minutes) is “about five times higher”. The “Concentration relative to rifaximin polymorph α or β” value in data set [2] (pH 6.8, after about 30 minutes) is recorded as “about twenty times higher”.

These data come from US10428086B2, “Solvated crystal form of rifaximin, production, compositions and uses thereof” (ALFASIGMA S.p.A., priority 2014, dated 2019).
